Common to all, as to assay: KINOMEscan
Common to all, as to type: binding
Holding throughout (settings): read-out: % control activity remaining

One assay addresses T1, FLT3(D835H) (Homo sapiens, UniProt P36888, D835H).
T1 construct: purchased Eurofins DiscoverX KINOMEscan
T1 sequence (P36888 27-993 D835H): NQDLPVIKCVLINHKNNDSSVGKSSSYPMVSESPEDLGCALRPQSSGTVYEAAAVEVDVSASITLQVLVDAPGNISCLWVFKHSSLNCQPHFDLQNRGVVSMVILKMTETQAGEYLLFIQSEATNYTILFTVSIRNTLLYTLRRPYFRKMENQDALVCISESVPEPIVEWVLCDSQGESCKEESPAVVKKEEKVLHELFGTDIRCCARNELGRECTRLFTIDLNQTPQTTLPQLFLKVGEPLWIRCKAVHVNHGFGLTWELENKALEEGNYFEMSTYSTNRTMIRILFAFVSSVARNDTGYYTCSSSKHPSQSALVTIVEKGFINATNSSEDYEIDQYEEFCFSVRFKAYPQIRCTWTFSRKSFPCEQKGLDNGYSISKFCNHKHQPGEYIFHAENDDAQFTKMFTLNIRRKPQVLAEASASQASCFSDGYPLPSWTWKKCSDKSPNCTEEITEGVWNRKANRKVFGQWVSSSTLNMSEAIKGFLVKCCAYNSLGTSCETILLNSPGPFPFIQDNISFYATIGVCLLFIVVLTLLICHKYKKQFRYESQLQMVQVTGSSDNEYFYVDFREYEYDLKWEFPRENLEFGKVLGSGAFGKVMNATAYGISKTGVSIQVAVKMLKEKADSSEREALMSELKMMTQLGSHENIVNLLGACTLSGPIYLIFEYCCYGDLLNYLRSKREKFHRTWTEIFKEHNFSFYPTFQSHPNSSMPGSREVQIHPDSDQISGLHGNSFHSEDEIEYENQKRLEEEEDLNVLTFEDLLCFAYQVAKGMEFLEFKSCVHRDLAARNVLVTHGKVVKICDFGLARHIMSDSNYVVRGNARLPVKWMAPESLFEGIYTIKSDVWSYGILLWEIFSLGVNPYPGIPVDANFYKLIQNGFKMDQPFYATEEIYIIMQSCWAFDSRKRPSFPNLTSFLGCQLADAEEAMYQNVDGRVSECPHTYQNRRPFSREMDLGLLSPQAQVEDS

A further assay deals with T2, p38-alpha (Homo sapiens, UniProt Q16539).
T2 construct: purchased Eurofins DiscoverX KINOMEscan

For another assay, the target named is T3, ALK(L1196M) (Homo sapiens, UniProt Q9UM73, L1196M).
T3 construct: purchased Eurofins DiscoverX KINOMEscan

The target of a further assay is T4, EGFR(S752-I759del) (Homo sapiens, UniProt P00533, DEL752-759).
T4 construct: purchased Eurofins DiscoverX KINOMEscan

Another assay has as its target T5, CAMKK2 (Homo sapiens, UniProt Q96RR4).
T5 construct: purchased Eurofins DiscoverX KINOMEscan

The target of a further assay is T6, EGFR(E746-A750del) (Homo sapiens, UniProt P00533, DEL746-750).
T6 construct: purchased Eurofins DiscoverX KINOMEscan

The target in another assay is T7, ROS1 (Homo sapiens, UniProt P08922).
T7 construct: purchased Eurofins DiscoverX KINOMEscan

The next assay addresses T8, SRC (Homo sapiens, UniProt P12931).
T8 construct: purchased Eurofins DiscoverX KINOMEscan

In a further assay the target is T9, MET (Homo sapiens, UniProt P08581).
T9 construct: purchased Eurofins DiscoverX KINOMEscan

The target of assay [1] is T10, RSK1(Kin.Dom.1-N-terminal) (Homo sapiens, UniProt Q15418).
T10 construct: RSK1(Kin.Dom.1-N-terminal); purchased Eurofins DiscoverX KINOMEscan

The target of the next assay is T11, NEK1 (Homo sapiens, UniProt Q96PY6).
T11 construct: purchased Eurofins DiscoverX KINOMEscan
T11 sequence (Q96PY6 1-1258): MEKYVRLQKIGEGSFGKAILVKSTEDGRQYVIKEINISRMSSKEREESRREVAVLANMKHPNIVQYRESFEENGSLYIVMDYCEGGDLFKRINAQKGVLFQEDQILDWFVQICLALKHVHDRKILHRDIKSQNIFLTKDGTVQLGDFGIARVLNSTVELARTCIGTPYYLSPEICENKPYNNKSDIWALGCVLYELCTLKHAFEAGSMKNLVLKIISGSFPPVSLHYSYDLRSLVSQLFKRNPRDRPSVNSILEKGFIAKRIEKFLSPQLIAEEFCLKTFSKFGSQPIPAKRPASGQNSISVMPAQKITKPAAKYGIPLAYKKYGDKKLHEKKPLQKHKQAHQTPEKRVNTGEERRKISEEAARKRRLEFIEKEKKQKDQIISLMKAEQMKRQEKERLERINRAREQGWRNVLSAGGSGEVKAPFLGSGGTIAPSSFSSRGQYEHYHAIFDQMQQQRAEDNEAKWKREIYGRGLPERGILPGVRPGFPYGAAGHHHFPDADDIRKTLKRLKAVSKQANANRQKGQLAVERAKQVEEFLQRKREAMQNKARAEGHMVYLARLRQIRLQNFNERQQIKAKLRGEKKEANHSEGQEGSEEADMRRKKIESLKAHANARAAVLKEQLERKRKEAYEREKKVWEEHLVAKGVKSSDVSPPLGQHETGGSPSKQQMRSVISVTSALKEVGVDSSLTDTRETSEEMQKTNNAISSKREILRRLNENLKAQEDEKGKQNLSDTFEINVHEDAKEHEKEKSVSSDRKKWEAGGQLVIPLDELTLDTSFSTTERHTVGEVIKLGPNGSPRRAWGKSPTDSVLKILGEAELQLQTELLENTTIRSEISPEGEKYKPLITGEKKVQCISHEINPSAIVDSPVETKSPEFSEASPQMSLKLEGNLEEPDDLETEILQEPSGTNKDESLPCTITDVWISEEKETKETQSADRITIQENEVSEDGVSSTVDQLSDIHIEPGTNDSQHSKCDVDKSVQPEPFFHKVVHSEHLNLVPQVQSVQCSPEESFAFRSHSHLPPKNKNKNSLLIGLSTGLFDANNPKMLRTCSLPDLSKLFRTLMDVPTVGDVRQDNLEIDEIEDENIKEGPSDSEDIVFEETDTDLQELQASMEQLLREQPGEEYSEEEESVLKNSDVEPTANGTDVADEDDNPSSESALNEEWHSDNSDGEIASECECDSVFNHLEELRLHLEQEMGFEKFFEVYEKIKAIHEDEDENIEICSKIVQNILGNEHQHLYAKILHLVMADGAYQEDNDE

The target of assay [2] is T12, EGFR(L747-E749del, A750P) (Homo sapiens, UniProt P00533, A750P/DEL747-749).
T12 construct: purchased Eurofins DiscoverX KINOMEscan

For another assay, the target named is T13, HIPK3 (Homo sapiens, UniProt Q9H422).
T13 construct: purchased Eurofins DiscoverX KINOMEscan

Molecules are shown by their SMILES.

We go through three compounds from publication PMC6437697 (Journal of Medicinal Chemistry, 2019).

T8 sequence (P12931 whole entry): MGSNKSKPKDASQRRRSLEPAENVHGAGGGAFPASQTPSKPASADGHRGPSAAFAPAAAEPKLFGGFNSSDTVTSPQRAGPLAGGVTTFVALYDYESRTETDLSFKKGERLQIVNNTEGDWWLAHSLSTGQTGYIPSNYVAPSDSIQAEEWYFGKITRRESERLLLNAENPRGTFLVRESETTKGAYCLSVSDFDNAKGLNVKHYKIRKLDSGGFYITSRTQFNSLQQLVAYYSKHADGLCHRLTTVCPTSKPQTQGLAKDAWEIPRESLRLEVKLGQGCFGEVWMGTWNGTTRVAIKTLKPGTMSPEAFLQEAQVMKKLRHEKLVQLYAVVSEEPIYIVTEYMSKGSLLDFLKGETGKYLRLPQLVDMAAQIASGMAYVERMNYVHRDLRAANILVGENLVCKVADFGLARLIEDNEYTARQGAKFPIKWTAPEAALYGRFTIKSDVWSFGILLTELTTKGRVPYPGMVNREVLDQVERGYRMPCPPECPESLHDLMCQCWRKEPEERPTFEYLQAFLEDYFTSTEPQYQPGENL
T3 sequence (Q9UM73 19-1620 L1196M): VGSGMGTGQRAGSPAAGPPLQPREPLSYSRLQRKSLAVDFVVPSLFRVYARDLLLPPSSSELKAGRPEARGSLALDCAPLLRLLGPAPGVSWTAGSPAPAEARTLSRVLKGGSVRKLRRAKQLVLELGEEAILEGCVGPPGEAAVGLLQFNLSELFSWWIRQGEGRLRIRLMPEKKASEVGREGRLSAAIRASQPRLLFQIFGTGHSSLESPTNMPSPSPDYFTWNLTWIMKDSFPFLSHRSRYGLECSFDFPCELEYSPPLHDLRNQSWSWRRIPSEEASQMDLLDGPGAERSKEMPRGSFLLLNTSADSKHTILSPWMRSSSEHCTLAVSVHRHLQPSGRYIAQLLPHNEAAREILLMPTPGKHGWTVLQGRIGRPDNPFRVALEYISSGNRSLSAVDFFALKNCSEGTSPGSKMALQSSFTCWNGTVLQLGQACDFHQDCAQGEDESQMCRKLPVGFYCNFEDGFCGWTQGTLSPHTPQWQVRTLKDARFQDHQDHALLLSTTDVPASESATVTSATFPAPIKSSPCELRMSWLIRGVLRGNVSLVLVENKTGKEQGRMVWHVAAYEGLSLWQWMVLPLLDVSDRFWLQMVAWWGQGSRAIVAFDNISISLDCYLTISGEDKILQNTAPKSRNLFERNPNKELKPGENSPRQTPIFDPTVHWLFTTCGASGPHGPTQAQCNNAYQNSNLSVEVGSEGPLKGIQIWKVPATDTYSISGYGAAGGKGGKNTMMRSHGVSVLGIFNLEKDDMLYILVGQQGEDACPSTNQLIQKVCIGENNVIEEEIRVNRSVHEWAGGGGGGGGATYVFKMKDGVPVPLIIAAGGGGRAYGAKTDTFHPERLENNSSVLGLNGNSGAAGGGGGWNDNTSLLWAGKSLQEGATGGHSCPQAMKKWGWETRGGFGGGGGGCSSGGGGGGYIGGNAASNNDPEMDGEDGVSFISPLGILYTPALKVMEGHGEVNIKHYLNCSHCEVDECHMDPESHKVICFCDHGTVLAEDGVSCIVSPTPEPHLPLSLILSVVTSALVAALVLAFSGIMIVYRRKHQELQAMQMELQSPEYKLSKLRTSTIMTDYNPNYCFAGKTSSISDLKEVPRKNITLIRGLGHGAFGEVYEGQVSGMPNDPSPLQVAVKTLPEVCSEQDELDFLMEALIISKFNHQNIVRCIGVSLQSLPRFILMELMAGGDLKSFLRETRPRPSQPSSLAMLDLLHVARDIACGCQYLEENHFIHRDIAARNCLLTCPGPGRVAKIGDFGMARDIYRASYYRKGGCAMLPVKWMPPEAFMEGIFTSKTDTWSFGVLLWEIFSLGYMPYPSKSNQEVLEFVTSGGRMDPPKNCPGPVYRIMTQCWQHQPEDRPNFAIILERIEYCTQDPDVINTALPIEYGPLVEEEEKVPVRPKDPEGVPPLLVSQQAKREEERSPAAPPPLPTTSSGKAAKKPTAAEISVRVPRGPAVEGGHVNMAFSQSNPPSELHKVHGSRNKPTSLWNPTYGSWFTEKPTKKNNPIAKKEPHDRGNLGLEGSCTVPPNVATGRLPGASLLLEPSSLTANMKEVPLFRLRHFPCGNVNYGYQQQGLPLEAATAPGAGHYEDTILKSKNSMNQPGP
T6 sequence (P00533 with tags, fused parts or gaps DEL746-750 limits assumed): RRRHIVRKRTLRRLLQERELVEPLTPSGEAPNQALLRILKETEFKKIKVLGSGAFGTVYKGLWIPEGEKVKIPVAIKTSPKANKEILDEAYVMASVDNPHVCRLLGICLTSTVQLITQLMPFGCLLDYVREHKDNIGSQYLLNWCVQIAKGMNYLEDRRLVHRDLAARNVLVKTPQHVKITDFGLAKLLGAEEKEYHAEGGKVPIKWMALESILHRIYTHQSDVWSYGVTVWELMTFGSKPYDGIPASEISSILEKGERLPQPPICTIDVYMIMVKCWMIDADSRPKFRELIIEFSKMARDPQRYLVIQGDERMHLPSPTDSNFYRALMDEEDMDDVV
T2 sequence (Q16539 whole entry): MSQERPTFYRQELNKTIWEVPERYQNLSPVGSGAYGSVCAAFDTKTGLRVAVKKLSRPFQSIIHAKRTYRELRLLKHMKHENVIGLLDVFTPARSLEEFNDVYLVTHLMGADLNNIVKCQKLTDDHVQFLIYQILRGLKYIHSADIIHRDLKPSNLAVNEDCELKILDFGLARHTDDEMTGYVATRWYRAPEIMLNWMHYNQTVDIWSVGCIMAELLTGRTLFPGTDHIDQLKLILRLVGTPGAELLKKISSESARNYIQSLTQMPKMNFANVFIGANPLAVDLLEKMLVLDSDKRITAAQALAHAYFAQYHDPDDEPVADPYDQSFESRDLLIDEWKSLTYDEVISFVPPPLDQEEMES
T9 sequence (P08581 25-1390): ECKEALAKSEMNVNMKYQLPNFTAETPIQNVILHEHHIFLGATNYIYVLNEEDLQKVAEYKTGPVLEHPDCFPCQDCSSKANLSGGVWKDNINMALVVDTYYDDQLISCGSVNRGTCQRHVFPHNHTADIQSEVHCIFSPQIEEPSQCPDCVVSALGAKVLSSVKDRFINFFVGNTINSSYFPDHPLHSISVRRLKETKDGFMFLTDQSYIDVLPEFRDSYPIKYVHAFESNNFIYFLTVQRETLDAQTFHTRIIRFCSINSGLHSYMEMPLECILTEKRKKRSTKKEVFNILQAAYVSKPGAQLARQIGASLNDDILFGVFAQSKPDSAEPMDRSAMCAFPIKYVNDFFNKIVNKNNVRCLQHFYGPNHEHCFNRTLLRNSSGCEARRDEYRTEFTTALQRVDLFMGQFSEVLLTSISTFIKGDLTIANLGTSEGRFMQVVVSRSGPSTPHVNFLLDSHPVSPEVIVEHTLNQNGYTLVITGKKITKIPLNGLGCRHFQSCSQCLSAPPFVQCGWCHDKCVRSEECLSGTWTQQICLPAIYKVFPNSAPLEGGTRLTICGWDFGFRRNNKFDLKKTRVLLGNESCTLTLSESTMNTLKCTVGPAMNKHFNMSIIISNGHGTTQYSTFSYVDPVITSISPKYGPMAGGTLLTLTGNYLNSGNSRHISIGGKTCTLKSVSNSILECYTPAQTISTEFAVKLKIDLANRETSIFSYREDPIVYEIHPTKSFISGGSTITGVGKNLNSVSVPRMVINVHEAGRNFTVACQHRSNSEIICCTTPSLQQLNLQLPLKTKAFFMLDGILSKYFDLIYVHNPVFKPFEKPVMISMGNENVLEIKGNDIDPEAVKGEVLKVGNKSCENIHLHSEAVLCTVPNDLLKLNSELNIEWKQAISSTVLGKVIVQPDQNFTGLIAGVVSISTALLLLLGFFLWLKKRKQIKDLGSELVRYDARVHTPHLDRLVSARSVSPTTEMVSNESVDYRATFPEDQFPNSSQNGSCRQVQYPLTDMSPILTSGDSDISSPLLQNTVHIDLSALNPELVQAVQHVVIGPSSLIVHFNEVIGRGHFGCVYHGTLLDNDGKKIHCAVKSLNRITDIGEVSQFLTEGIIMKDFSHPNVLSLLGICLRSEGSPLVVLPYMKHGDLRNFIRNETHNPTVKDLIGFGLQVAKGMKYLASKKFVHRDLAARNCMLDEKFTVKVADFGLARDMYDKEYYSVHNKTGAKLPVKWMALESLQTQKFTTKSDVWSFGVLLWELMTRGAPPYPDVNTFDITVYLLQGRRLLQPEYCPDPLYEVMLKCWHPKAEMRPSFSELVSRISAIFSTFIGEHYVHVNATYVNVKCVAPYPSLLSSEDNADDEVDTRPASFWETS
T12 sequence (P00533 with tags, fused parts or gaps A750P/DEL747-749 limits assumed): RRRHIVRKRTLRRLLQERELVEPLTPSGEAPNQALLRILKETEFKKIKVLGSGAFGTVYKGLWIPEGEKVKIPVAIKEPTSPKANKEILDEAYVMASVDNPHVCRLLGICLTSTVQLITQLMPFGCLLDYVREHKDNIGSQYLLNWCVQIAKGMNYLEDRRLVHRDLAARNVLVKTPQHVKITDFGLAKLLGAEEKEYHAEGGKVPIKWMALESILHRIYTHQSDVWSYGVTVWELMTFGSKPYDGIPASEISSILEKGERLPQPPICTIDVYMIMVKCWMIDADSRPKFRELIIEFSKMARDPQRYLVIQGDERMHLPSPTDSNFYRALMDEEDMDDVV
T4 sequence (P00533 with tags, fused parts or gaps DEL752-759 limits assumed): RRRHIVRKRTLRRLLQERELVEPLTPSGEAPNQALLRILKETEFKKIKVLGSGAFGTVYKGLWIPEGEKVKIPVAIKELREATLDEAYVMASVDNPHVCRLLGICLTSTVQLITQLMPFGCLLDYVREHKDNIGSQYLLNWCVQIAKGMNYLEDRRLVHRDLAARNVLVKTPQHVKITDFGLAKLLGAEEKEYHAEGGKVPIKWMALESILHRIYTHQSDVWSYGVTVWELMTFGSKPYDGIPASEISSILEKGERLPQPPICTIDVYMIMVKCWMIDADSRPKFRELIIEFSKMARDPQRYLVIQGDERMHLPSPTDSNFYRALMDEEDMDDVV

Turning to `Clc1cc(NCC2CC2)c2ncc(-c3ccc4[nH]ncc4c3)n2n1` [compound 2, 6-Chloro-N-(cyclopropylmethyl)-3-(1H-indazol-5-yl)imidazo[1,2-b]pyridazin-8-amine], the remaining binding at 1 µM stood at 13% at FLT3(D835H); 100% on p38-alpha; 77% at ALK(L1196M); 94% on EGFR(S752-I759del); 99% on CAMKK2; 84% on EGFR(E746-A750del). Also, the remaining binding at 1 µM on ROS1 was found to be 100%; at SRC it was 100%; at MET it was 90%; in assay [1], 72%; on NEK1 it was 84%; in assay [2] it was 87%. In addition, the remaining binding at 1 µM on HIPK3 stood at 63%.

In the case of `O=C(CN1CCOCC1)N[C@H]1CC[C@H](Nc2cc(Cl)nn3c(-c4ccc5[nH]ncc5c4)cnc23)CC1` [compound 26], the remaining binding at 1 µM on FLT3(D835H) worked out at 5.5%; at p38-alpha, 99%; at ALK(L1196M), 90%; at EGFR(S752-I759del), 95%; at CAMKK2, 42%; at EGFR(E746-A750del) it was 91%. The remaining binding at 1 µM was 100% on ROS1; 100% at SRC; 100% on MET; 54% in assay [1]; 92% on NEK1; 83% in assay [2]. On HIPK3, the remaining binding at 1 µM was 2.4%.

Regarding `CN1CCC(CNc2cc(Cl)nn3c(-c4cc5nc(Nc6ccccc6)[nH]c5cc4F)cnc23)CC1` [compound 31, 6-Chloro-3-(6-fluoro-2-(phenylamino)-1H-benzo[d]imidazol-5-yl)-N-((1-methylpiperidin-4-yl)methyl)imidazo[1,2-b]pyridazin-8-amine], the remaining binding at 1 µM on FLT3(D835H) came out at 90%; at p38-alpha, 95%; on ALK(L1196M) it was 94%; on EGFR(S752-I759del) it was 97%; on CAMKK2 it was 100%; at EGFR(E746-A750del), 100%. Also, the remaining binding at 1 µM on ROS1 was determined as 96%; at SRC, 100%; on MET it was 97%; in assay [1] it was 100%; on NEK1, 96%; in [2] it was 81%. For the same compound, on HIPK3, the remaining binding at 1 µM stood at 89%.
